In patent publication US20250129021A1, “SMALL MOLECULE PROTEIN SYNTHESIS MODULATORS” (Interdict Bio, Inc., priority 2023, published 2025):

Columns and labels:
Format in all cases: biochemical
Conditions in all cases: HeLa S3 lysate, sfGFP/mCherry ratio, 2 hrs at 30° C.
KRAS G12D = assay: In vitro transcription-translation (IVTT) assay, KRAS G12D reporter
Source text: (§1) All reporter constructs have been cloned into the pT7CFE1-CHis plasmid (ThermoFisher #88860) using Gibson assembly procedures (NEB #E2611L). The parental pT7CFE1-CHis plasmid contains an EMCV IRES at the 5′UTR for translation initiation, a multiple-cloning site (MCS) for gene insertion, an optional C-terminal His-epitope tag, and polyA sequence in the 3′UTR to regulate mRNA stability. All reporters are designed to be inserted at the MCS to include a red fluorescent protein (mCherry), P2A self-cleaving peptide which releases the preceding mCherry protein product, and a fusion open reading frame containing a 3×FLAG epitope, a peptide sequence of interest (TEST), and green fluorescent protein (sfGFP).
(§2) Construct Plasmid Preparation: All plasmids are isolated from MACH1 cells (ThermoFisher) grown overnight in ampicillin-containing luria broth, and purified using ZymoPure Express Plasmid Midiprep Kit (Zymo Research). Constructs are sequenced verified and diluted to a working concentration of 110 ng/μL.
(§3) HeLa S3 Lysate Preparation: HeLa S3 cell pellets are acquired from Ipracell/Ipratech (Belgium) and shipped as 4 mL frozen cell pellets on dry ice for storage at −80° C. until use. The procedure for lysate preparation is as follows. Prepare 1× Lysis Buffer, cold and stored on ice:
(§4) Each preparation takes 8 cell pellets (4 ml packed volume each, approximately 1.0×10^9 cells per pellet). Thaw cell pellets from −80° C. on ice for 90 mins. Lay pellets horizontally on top of the ice and rotate every 30 mins to ensure even thawing. Once thawed, add 4 mL of cold lysis buffer to each pellet, and using a serological pipet, gently pipet up and down to break up clumps. Incubate resuspended cells in ice for an additional 30 mins (plunged into ice). During 30 min incubation, rinse and RNase-zap (Ambion) glass dounces (use loose pestle “A”), gently dry and place on ice until needed. Prepare RNase-free Eppendorf tubes for spinning and for batch storage. Add batch labels to 1.5-1.7 mL RNase-free microcentrifuge tubes (labeling scheme below). Each batch will have an extra 1.5-1.7 mL RNase-free microcentrifuge tube for 40 μL of lysate, label the top of this tube (labeling scheme below). After 30 min incubation, transfer all 8 mL of cell pellet to dounce. Cell lysis is complete after douncing 100 times. Aliquot cell lysis into 1.5-1.7 mL temporary-microcentrifuge tubes. Place tubes in centrifuge with “fins” out, and spin at 1,200×g for 5 mins. After the first spin use a 1 mL pipet to resuspend each tube and repeat spin. This acts as an additional lysis step, is more vigorous and increases lysate yield. During second spin get liquid N2 and a fresh conical tube on ice. After spin is complete, transfer supernatant (lysate) from microcentrifuge tubes into the 50 mL conical tube and keep on ice. Repeat steps 10-14 for all other cell pellets until completed. Once all cell lysate has been transferred to the 50 mL conical tube pipet to mix so the solution is homogenous. Transfer 1 mL of lysate into batch-labeled microcentrifuge tubes and flash freeze in liquid nitrogen. Be sure to pipet up and down to mix throughout transfer step. Place all tubes in the […] for long-term storage.
(§5) In vitro transcription-translation assay setup: Each assay includes a master mix containing lysate and shared components, a 96-well plate containing compound titrations for testing, a 96-well DNA plate with reporter constructs to be tested, 96-well skirted PCR plates, and 96-well flat-bottom, black, fluorescent assay plates. […]

ALK = assay: In vitro transcription-translation (IVTT) assay, ALK reporter
Source text: as §1, §2, §3, §4, §5

MYC = assay: In vitro transcription-translation (IVTT) assay, MYC reporter
Method in brief: (§6)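 Reporter: mCherry, P2A, then 3×FLAG-target peptide-sfGFP fusion, IRES-initiated; HeLa S3 lysate IVTT; cpd dilutions 30 μM−0.1 μM half-log in 100% DMSO (dilution-plate conc); DNA added last; 2 h, 30° C; PBS quench.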

CCND1 = assay: In vitro transcription-translation (IVTT) assay, CCND1 reporter
Method in brief: as §6

MCL-1 = assay: In vitro transcription-translation (IVTT) assay, MCL-1 reporter
Method in brief: as §6

Row | IC50 (KRAS G12D) | IC50 (ALK) | IC50 (MYC) | IC50 (CCND1) | Compound | IC50 (MCL-1)
1 | > 30 µM | 10 to 20 µM | > 30 µM | – | COc1ccc(C[C@H]2NC[C@H](O)[C@H]2OC(=O)NC2CNC2)cc1 [V187679, (2R,3S,4S)-4-hydroxy-2-(4-methoxybenzyl)pyrrolidin-3-yl azetidin-3-ylcarbamate] | –
2 | > 30 µM | 20 to 30 µM | > 30 µM | – | COc1ccc(C[C@H]2NC[C@H](O)[C@H]2OC(=O)NCCN2C[C@@H](O)[C@H](NC(C)=O)C2)cc1 [V187578, (2R,3S,4S)-4-hydroxy-2-[(4-methoxyphenyl)methyl]pyrrolidin-3-yl N-{2-[(3R,4R)-3-acetamido-4-hydroxypyrrolidin-1-yl]ethyl}carbamate] | –
3 | – | < 10 µM | < 10 µM | < 10 µM | COc1ccc(C[C@H]2NC[C@H](O)[C@H]2OC(=O)NCCCO)cc1 [V187585, (2R,3S,4S)-4-hydroxy-2-[(4-methoxyphenyl)methyl]pyrrolidin-3-yl N-(3-hydroxypropyl)carbamate] | < 10 µM
4 | > 30 µM | – | > 30 µM | – | COc1ccc(C[C@H]2NC[C@H](O)[C@H]2OC(=O)NCCNCCOC(C)C)cc1 [V187640, (2R,3S,4S)-4-hydroxy-2-[(4-methoxyphenyl)methyl]pyrrolidin-3-yl N-{2-[(2-isopropoxyethyl)amino]ethyl}carbamate; trifluoroacetic acid] | –
5 | > 30 µM | 20 to 30 µM | – | – | COc1ccc(C[C@H]2NC[C@H](O)[C@H]2OC(=O)NCCN2CCC3(C2)CC(F)(F)C3)cc1 [V187643, (2R,3S,4S)-4-hydroxy-2-[(4-methoxyphenyl)methyl]pyrrolidin-3-yl N-(2-{2,2-difluoro-6-azaspiro[3.4]octan-6-yl}ethyl)carbamate] | –
6 | 10 to 20 µM | < 10 µM | – | – | COc1ccc(C[C@H]2NC[C@H](O)[C@H]2OC(=O)NCCO)cc1 [V187584, (2R,3S,4S)-4-hydroxy-2-[(4-methoxyphenyl)methyl]pyrrolidin-3-yl N-(2-hydroxyethyl)carbamate] | –
7 | > 30 µM | – | > 30 µM | – | COc1ccc(C[C@H]2NC[C@H](O)[C@H]2OC(=O)Nc2nnc(CN(Cc3ccccc3)Cc3ccccc3)s2)cc1 [V187551, (2R,3S,4S)-4-hydroxy-2-[(4-methoxyphenyl)methyl]pyrrolidin-3-yl N-{5-[(dibenzylamino)methyl]-1,3,4-thiadiazol-2-yl}carbamate] | –
8 | > 30 µM | < 10 µM | – | – | COc1ccc(C[C@H]2NC[C@H](O)[C@H]2OC(=O)NCCOCCN(C)C)cc1 [V187383, (2R,3S,4S)-4-hydroxy-2-[(4-methoxyphenyl)methyl]pyrrolidin-3-yl N-{2-[2-(dimethylamino)ethoxy]ethyl}carbamate] | –
9 | – | < 10 µM | < 10 µM | < 10 µM | COc1ccc(C[C@H]2NC[C@H](O)[C@H]2OC(=O)Nc2ncc[nH]2)cc1 [V187755, (2R,3S,4S)-4-hydroxy-2-[(4-methoxyphenyl)methyl]pyrrolidin-3-yl N-(1H-imidazol-2-yl)carbamate] | –
10 | 20 to 30 µM | – | 10 to 20 µM | 20 to 30 µM | COc1ccc(C[C@H]2NC[C@H](O)[C@H]2OC(=O)NCCN2CC(O)(C#N)C2)cc1 [V187567, (2R,3S,4S)-4-hydroxy-2-[(4-methoxyphenyl)methyl]pyrrolidin-3-yl N-[2-(3-cyano-3-hydroxyazetidin-1-yl)ethyl]carbamate] | –
11 | – | 10 to 20 µM | > 30 µM | – | COc1ccc(C[C@H]2NC[C@H](O)[C@H]2OC(=O)NCCN2CC(C)(O)C2)cc1 [V187580, (2R,3S,4S)-4-hydroxy-2-[(4-methoxyphenyl)methyl]pyrrolidin-3-yl N-[2-(3-hydroxy-3-methylazetidin-1-yl)ethyl]carbamate; trifluoroacetic acid] | –
12 | – | > 30 µM | > 30 µM | – | COc1ccc(C[C@H]2NC[C@H](O)[C@H]2OC(=O)NCCN2C[C@@H](NC(C)=O)[C@H](NC(C)=O)C2)cc1 [V187588, (2R,3S,4S)-4-hydroxy-2-[(4-methoxyphenyl)methyl]pyrrolidin-3-yl N-{2-[(3R,4R)-3,4-diacetamidopyrrolidin-1-yl]ethyl}carbamate; trifluoroacetic acid] | –
13 | > 30 µM | > 30 µM | – | – | COc1ccc(C[C@H]2NC[C@H](O)[C@H]2OC(=O)Nc2ccccc2)cc1 [V187666, (2R,3S,4S)-4-hydroxy-2-[(4-methoxyphenyl)methyl]pyrrolidin-3-yl N-phenylcarbamate] | –
14 | 20 to 30 µM | – | 10 to 20 µM | – | COc1ccc(C[C@H]2NC[C@H](O)[C@H]2OC(=O)NCCNCCn2ccnc2)cc1 [V187637, (2R,3S,4S)-4-hydroxy-2-[(4-methoxyphenyl)methyl]pyrrolidin-3-yl N-(2-{[2-(imidazol-1-yl)ethyl]amino}ethyl)carbamate] | –

Row | Compound | IC50 (KRAS G12D) | IC50 (ALK) | IC50 (MYC) | IC50 (CCND1) | IC50 (MCL-1)
15 | COc1ccc(C[C@H]2NC[C@H](O)[C@H]2OC(=O)NCCN2CCCC2)cc1 [V187565, (2R,3S,4S)-4-hydroxy-2-[(4-methoxyphenyl)methyl]pyrrolidin-3-yl N-[2-(pyrrolidin-1-yl)ethyl]carbamate; trifluoroacetic acid] | > 30 µM | < 10 µM | > 30 µM | – | –
16 | COc1ccc(C[C@H]2NC[C@H](O)[C@H]2OC(=O)Nc2nnc(CO)s2)cc1 [V187598, (2R,3S,4S)-4-hydroxy-2-[(4-methoxyphenyl)methyl]pyrrolidin-3-yl N-[5-(hydroxymethyl)-1,3,4-thiadiazol-2-yl]carbamate; trifluoroacetic acid] | < 10 µM | < 10 µM | – | – | –
17 | COc1ccc(C[C@H]2NC[C@H](O)[C@H]2OC(=O)NCCNc2c(NCc3ccccc3)c(=O)c2=O)cc1 [V187519, (2R,3S,4S)-4-hydroxy-2-[(4-methoxyphenyl)methyl]pyrrolidin-3-yl N-(2-{[2-(benzylamino)-3,4-dioxocyclobut-1-en-1-yl]amino}ethyl)carbamate; trifluoroacetic acid] | > 30 µM | – | – | – | –
18 | CCC(=O)NNC(=O)O[C@@H]1[C@@H](O)CN[C@@H]1Cc1ccc(OC)cc1 [V187739, 1-{[(2R,3S,4S)-4-hydroxy-2-[(4-methoxyphenyl)methyl]pyrrolidin-3-yl]oxy}-N′-propanoylformohydrazide; trifluoroacetic acid] | 10 to 20 µM | < 10 µM | – | – | –
19 | COc1ccc(C[C@H]2NC[C@H](O)[C@H]2OC(=O)NCCN2CC(O)(CN)C2)cc1 [V187581, (2R,3S,4S)-4-hydroxy-2-[(4-methoxyphenyl)methyl]pyrrolidin-3-yl N-{2-[3-(aminomethyl)-3-hydroxyazetidin-1-yl]ethyl}carbamate; trifluoroacetic acid] | > 30 µM | – | 20 to 30 µM | – | –
20 | COc1ccc(C[C@H]2NC[C@H](O)[C@H]2OC(=O)NNCc2ccno2)cc1 [V187668, 1-{[(2R,3S,4S)-4-hydroxy-2-[(4-methoxyphenyl)methyl]pyrrolidin-3-yl]oxy}-N′-(1,2-oxazol-5-ylmethyl)formohydrazide; trifluoroacetic acid] | 10 to 20 µM | < 10 µM | – | – | –
21 | COc1ccc(C[C@H]2NC[C@H](O)[C@H]2OC(=O)NC[C@@H]2CCCO2)cc1 [V187521, (2R,3S,4S)-4-hydroxy-2-[(4-methoxyphenyl)methyl]pyrrolidin-3-yl N-[(2S)-oxolan-2-ylmethyl]carbamate; trifluoroacetic acid] | 10 to 20 µM | – | < 10 µM | < 10 µM | < 10 µM
